Assay results: the supplement of paper PMC10307832

Legend:
Assay in all cases: relative viability (nuclei count vs DMSO), 5 days (fraction); higher = more cells survive
FG-4592 + Pictilisib = compound: Cc1nc(C(=O)NCC(=O)O)c(O)c2ccc(Oc3ccccc3)cc12 [FG-4592] + CS(=O)(=O)N1CCN(Cc2cc3nc(-c4cccc5[nH]ncc45)nc(N4CCOCC4)c3s2)CC1 [Pictilisib] (partner 1 µM)
Method in brief: (§1)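 Relative viability is defined as nuclei in treated wells over nuclei in vehicle wells. Duplicate plates were run and medians reported. Lung cancer cell lines in 1536-well plates were dosed by pin tool one day after seeding, with one drug or with a fixed anchor-drug dose plus five library-drug doses (not always all listed) in √10 steps, and nuclei were counted after 5 days.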

IU1-47 + Luminespib = compound: CC1=CC(=C(N1C2=CC=C(C=C2)Cl)C)C(=O)CN3CCCCC3 [IU1-47] + CCNC(=O)c1noc(-c2cc(C(C)C)c(O)cc2O)c1-c1ccc(CN2CCOCC2)cc1 [Luminespib] (partner 0.01 µM)
Method in brief: as §1

IU1-47 + Trametinib = compound: CC1=CC(=C(N1C2=CC=C(C=C2)Cl)C)C(=O)CN3CCCCC3 [IU1-47] + CC(=O)Nc1cccc(-n2c(=O)n(C3CC3)c(=O)c3c(Nc4ccc(I)cc4F)n(C)c(=O)c(C)c32)c1 [Trametinib] (partner 0.02 µM)
Method in brief: as §1

FG-4592 + Olaparib = compound: Cc1nc(C(=O)NCC(=O)O)c(O)c2ccc(Oc3ccccc3)cc12 [FG-4592] + O=C(c1cc(Cc2n[nH]c(=O)c3ccccc23)ccc1F)N1CCN(C(=O)C2CC2)CC1 [Olaparib] (partner 8 µM)
Method in brief: as §1

Row | Cell Line | relative viability (FG-4592 + Pictilisib; first compound 0.08 µM) | relative viability (FG-4592 + Pictilisib; first compound 0.253 µM) | relative viability (FG-4592 + Pictilisib; first compound 0.8 µM) | relative viability (FG-4592 + Pictilisib; first compound 2.53 µM) | relative viability (FG-4592 + Pictilisib; first compound 8 µM) | relative viability (IU1-47 + Luminespib; first compound 0.08 µM) | relative viability (IU1-47 + Luminespib; first compound 0.253 µM) | relative viability (IU1-47 + Luminespib; first compound 0.8 µM) | relative viability (IU1-47 + Luminespib; first compound 2.53 µM) | relative viability (IU1-47 + Luminespib; first compound 8 µM) | relative viability (IU1-47 + Trametinib; first compound 0.08 µM) | relative viability (IU1-47 + Trametinib; first compound 0.253 µM) | relative viability (IU1-47 + Trametinib; first compound 0.8 µM) | relative viability (IU1-47 + Trametinib; first compound 2.53 µM) | relative viability (IU1-47 + Trametinib; first compound 8 µM) | relative viability (FG-4592 + Olaparib; first compound 0.08 µM) | relative viability (FG-4592 + Olaparib; first compound 0.253 µM) | relative viability (FG-4592 + Olaparib; first compound 0.8 µM) | relative viability (FG-4592 + Olaparib; first compound 2.53 µM) | relative viability (FG-4592 + Olaparib; first compound 8 µM)
1 | NCI-H2023 | 0.203 | 0.202 | 0.143 | 0.205 | 0.196 | 0.777 | 0.902 | 0.913 | 0.885 | 0.768 | 0.563 | 0.636 | 0.607 | 0.608 | 0.557 | 0.402 | 0.471 | 0.437 | 0.464 | 0.35
2 | NCI-H2085 | 0.356 | 0.425 | 0.426 | 0.438 | 0.449 | 0.446 | 0.5 | 0.522 | 0.446 | 0.318 | 0.515 | 0.471 | 0.577 | 0.614 | 0.523 | 0.738 | 0.779 | 0.845 | 0.744 | 0.873
3 | NCI-H2087 | 0.934 | 0.707 | 0.903 | 0.809 | 0.836 | 0.194 | 0.166 | 0.18 |  | 0.163 | 0.172 | 0.187 | 0.203 | 0.195 | 0.229 | 0.561 | 0.51 | 0.645 |  | 0.475
4 | NCI-H2126 | 0.487 | 0.483 | 0.449 | 0.511 | 0.531 | 0.928 | 0.975 | 0.949 |  | 0.899 | 0.642 | 0.595 | 0.592 | 0.498 | 0.534 | 0.964 | 0.846 | 0.857 | 0.876 | 0.919
5 | NCI-H2170 | 0.348 | 0.28 | 0.274 | 0.359 | 0.275 | 0.706 | 1.13 | 0.759 | 0.66 | 0.994 | 0.991 | 0.913 | 1 | 0.9 | 0.638 | 0.573 | 0.547 | 0.707 | 0.664 | 0.52
6 | NCI-H2228 | 0.423 | 0.36 | 0.248 | 0.45 | 0.284 | 0.154 | 0.122 | 0.162 | 0.144 | 0.132 | 0.614 | 0.415 | 0.699 | 0.454 | 0.399 | 0.386 | 0.697 | 0.794 | 0.517 | 0.693
7 | NCI-H2347 | 0.0319 | 0.633 | 0.434 | 0.567 | 0.562 | 0.233 | 0.363 | 0.642 | 0.513 | 0.32 | 0.258 | 0.282 | 0.3 | 0.304 | 0.302 | 0.622 | 0.485 | 0.543 | 0.596 | 0.607
8 | NCI-H2405 |  | 0.266 | 0.348 | 0.419 | 0.427 | 0.77 | 0.824 | 0.739 | 0.694 | 0.804 | 0.69 | 0.702 | 0.762 | 0.672 | 0.622 | 0.752 | 0.772 | 0.948 | 0.809 | 0.859
